Data on 4 compounds can be found in patent US8669272B2, “2,5-disubstituted piperidine orexin receptor antagonists” (Merck Sharp & Dohme Corp., priority 2008, dated 2014).

Each structure is given as a SMILES string.

The target of one assay is T1, orexin-2 receptor (OX2R) (Homo sapiens, UniProt O43614).
T1 construct: expressed in transfected cells; host or cells: CHO cells (membranes)
T1 sequence (O43614 1-444): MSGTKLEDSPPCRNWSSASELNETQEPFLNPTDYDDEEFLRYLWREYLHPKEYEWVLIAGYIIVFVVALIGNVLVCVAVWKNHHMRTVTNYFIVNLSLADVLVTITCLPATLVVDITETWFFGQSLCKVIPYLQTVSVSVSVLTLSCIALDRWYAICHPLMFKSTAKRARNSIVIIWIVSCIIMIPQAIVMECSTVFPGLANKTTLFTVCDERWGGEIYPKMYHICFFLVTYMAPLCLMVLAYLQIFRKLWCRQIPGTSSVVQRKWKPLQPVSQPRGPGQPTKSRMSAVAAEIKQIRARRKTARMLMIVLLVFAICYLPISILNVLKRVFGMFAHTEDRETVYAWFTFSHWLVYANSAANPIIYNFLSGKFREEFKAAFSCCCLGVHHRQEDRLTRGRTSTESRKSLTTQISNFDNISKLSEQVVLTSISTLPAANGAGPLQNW
The experiment in a line: radioligand binding assay, membranes from CHO cells expressing OX2. The conditions noted are these: CHO cell membranes. The method, then:
(§1) The utility of the compounds in accordance with the present invention as orexin receptor OX1R and/or OX2R antagonists may be readily determined without undue experimentation by methodology well known in the art, including the “FLIPR Ca^2+ Flux Assay” (Okumura et al., Biochem. Biophys. Res. Comm. 280:976-981, 2001). In a typical experiment the OX1 and OX2 receptor antagonistic activity of the compounds of the present invention was determined in accordance with the following experimental method. For intracellular calcium measurements, Chinese hamster ovary (CHO) cells expressing the rat OX1 receptor or the human OX2 receptor, are grown in Iscove's modified DMEM containing 2 mM L-glutamine, […], 1% hypoxanthine-thymidine supplement, 100 U/ml penicillin, 100 ug/ml streptomycin and 10% heat-inactivated fetal calf serum (FCS). The cells are seeded at 20,000 cells/well into Becton-Dickinson black 384-well clear bottom sterile plates coated with poly-D-lysine. All reagents were from GIBCO-Invitrogen Corp. The seeded plates are incubated overnight at 37° C. and 5% CO2. Ala-6,12 human orexin-A as the agonist is prepared as a 1 mM stock solution in 1% bovine serum albumin (BSA) and diluted in assay buffer (HBSS containing 20 mM HEPES, 0.1% BSA and 2.5 mM probenecid, pH7.4) for use in the assay at a final concentration of 70 pM. Test compounds are prepared as 10 mM stock solution in DMSO, then diluted in 384-well plates, first in DMSO, then assay buffer. On the day of the assay, cells are washed 3 times with 100 ul assay buffer and then incubated for 60 min (37° C., 5% CO2) in 60 ul assay buffer containing 1 uM Fluo-4AM ester, 0.02% pluronic acid, and 1% BSA. The dye loading solution is then aspirated and cells are washed 3 times with 100 ul assay buffer. 30 ul of that same buffer is left in each well. Within the Fluorescent Imaging Plate Reader (FLIPR, Molecular Devices), test compounds are added to the plate in a volume of 25 ul, incubated for 5 min and finally 25 ul of agonist is added. Fluorescence is measured for each well at 1 second intervals for 5 minutes and the height of each fluorescence peak is compared to the height of the fluorescence peak induced by 70 pM Ala-6,12 orexin-A with buffer in place of antagonist. […] Alternatively, compound potency can be assessed by a radioligand binding assay (described in Bergman et. al. Bioorg. Med. Chem. Lett. 2008, 18, 1425-1430) in which the inhibition constant (Ki) is determined in membranes prepared from CHO cells expressing either the orexin-1 (OX1) or orexin-2 (OX2) receptor. The intrinsic orexin receptor antagonist activity of a compound which may be used in the present invention may be determined by these assays.

A further assay concerns the target T2, orexin-1 receptor (OX1R) (Homo sapiens, UniProt O43613).
T2 construct: expressed in transfected cells; host or cells: CHO cells (membranes)
T2 sequence (O43613 1-425): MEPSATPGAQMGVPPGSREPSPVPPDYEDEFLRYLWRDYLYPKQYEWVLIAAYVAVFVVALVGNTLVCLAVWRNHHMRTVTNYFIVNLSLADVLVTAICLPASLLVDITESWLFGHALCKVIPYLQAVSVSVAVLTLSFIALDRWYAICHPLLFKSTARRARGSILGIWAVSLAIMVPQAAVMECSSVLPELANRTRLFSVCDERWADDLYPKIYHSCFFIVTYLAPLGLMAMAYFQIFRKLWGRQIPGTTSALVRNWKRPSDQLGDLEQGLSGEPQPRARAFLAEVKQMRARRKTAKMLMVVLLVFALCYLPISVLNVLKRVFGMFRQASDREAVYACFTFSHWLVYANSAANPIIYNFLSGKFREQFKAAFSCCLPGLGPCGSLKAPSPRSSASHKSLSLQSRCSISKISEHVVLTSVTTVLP
Description: radioligand binding assay, membranes from CHO cells expressing OX1. The conditions noted are these: CHO cell membranes. As to the method: as §1

Usually Ki stands for a measure of affinity in units of concentration, obtained from inhibition or displacement. Lower therefore signals tighter binding.

On to `Cc1ccc(-n2nccn2)c(C(=O)N2C[C@H](COc3cccc(F)c3)CC[C@H]2C)c1` [A-9, (2R,5R)-5-[(3-fluorophenoxy)methyl]-2-methyl-1-[5-methyl-2-(2H-1,2,3-triazol-2-yl)benzoyl]piperidine], for which the Ki was found to be 0.36 nM at orexin-2 receptor (OX2R) and 0.86 nM at orexin-1 receptor (OX1R).
In the same order, the values of `Cc1ccc(-n2nccn2)c(C(=O)N2C[C@H](Cc3nc4ccccc4n3C)CC[C@H]2C)c1` [C-2, 1-methyl-2-({(3S,6R)-6-methyl-1-[5-methyl-2-(2H-1,2,3-triazol-2-yl)benzoyl]piperidin-3-yl}methyl)-1H-benzimidazole] are 4.6 nM and 4.5 nM.
For `Cc1ccc(-n2nccn2)c(C(=O)N2C[C@H](CC(=O)N3CCCc4ccccc43)CC[C@H]2C)c1` [C-6, 1-({(3S,6R)-6-methyl-1-[5-methyl-2-(2H-1,2,3-triazol-2-yl)benzoyl]piperidin-3-yl}acetyl)-1,2,3,4-tetrahydroquinoline] the same measures were 6.9 nM and 95 nM.
For `Cc1ccc(-n2nccn2)c(C(=O)N2C[C@H](COc3nccc4ccccc34)CC[C@H]2C)c1` [A-15, 1-({(3R,6R)-6-methyl-1-[5-methyl-2-(2H-1,2,3-triazol-2-yl)benzoyl]piperidine-3-yl}methoxy)isoquinoline] the same measures were 0.2 nM and 2.7 nM.
